Test results: patent publication US5939096A, “Liposome drug-loading method and composition” (priority 1997, dated 1999)
Like-named read-outs stand apart in the source and are kept apart here.

Experiments:
[1] = pH 9
[2] = n-octanol/water, cited from earlier work
[3] = not told, cited from earlier work
[4] = Permeability coefficient in HPC/cholesterol extruded vesicles; settings: not told, permeability coefficient P, 60/40 HPC/cholesterol extruded vesicles (Table II)
Method: ^e in 60/40 (mol/mol) HPC/cholesterolextruded vesicles, at 25°
^e in 60/40 (mol/mol) HPC/cholesterolextruded vesicles.

[5] = Table II; cited from earlier work
[6] = Loading and calcium ionophore (A23187)-promoted release of entrapped nalidixic acid
Method: (FIG. 8, solid line) and 60° C. (broken line), respectively.
The experiment was carried out at two different temperatures to investigate how changes in lipid phase (i.e., gel versus liquid-crystalline) affects the penetration of molecules into the bilayer. When the suspension was incubated at 25° C.
A calcium ionophore, A23187, (10 micromolar) was added at either t=700 s (25° C.; FIG. 8--solid line) or at 350 s (60° C.; FIG. 8--broken line), and the fluorescence was monitored over the course of the experiment.

## O=S(=O)(O)c1cc(O)c2ccc3c(S(=O)(=O)O)cc(S(=O)(=O)O)c4ccc1c2c34 [pyranine, 8-Hydroxypyrene-1,3,6-trisulfonic acid]
[1]
  n-octanol/water partition coefficient Kp: < 3 × 10^-5

## 5(6)-carboxyfluorescein
[2]; pH 6.9
  partition coefficient Kp: 2.8 × 10^-3
[2]; pH 8
  partition coefficient Kp: 6.0 × 10^-5
[3]; pH 7
  permeability coefficient P: 8.1e-05 ×10⁻⁶ cm/s
[3]; pH 8.2
  permeability coefficient P: 7.2e-07 ×10⁻⁶ cm/s

## CCn1cc(C(=O)O)c(=O)c2ccc(C)nc21 [nalidixic acid]
[4]; 25° C.
  Papp: 0.014 ×10⁻⁶ cm/s
[4]; 60° C.
  Papp: 0.17 ×10⁻⁶ cm/s
[5]
  pKa: 6.13
[6]; 25° C.
  loading t1/2: 84 s
[6]; 60° C.
  loading t1/2: 7 s
[6]; 60° C. versus 25° C.
  enhancement of loading rate: one order of magnitude
